Measured values as given in patent US20260224714A1, “CYCLING LYSOSOMAL TARGETING ANTIBODY CONJUGATES” (Lycia Therapeutics, Inc., priority 2023, published 2026).

Columns and labels:
Format in all cases: cell-based
[1] = test system: Alexa Fluor647 labelled human IgE; assay: Uptake assay: internalization of Alexa Fluor 647 labelled IgE in ASGPR1/2 KO HepG2 cells (Example 6); settings: equimolar conjugate and AF647 IgE, normalized to unconjugated parent protein
Experimental: (§1) The following experiments were performed with HepG2 hepatocellular carcinoma cells, grown in Eagle's Minimal Essential Media (EMEM) supplemented with 10% FBS and penicillin/streptomycin.
(§2) HepG2 cells (25,000) were plated in 96-well plates 48 hours before the experiment was performed. On the day of the experiment, indicated the conjugate was mixed with an equimolar stock of Alexa Fluor647 labelled human IgE (Enzo Life Sciences, BPD-DIA-HE 1) in fresh EMEM as a 600 nM stock. The precomplexed conjugate:IgE mixture was incubated at room temperature for 30 minutes. During the precomplexing step, media from HepG2 was removed, and 40 ul of EMEM with 1/100 Fc Receptor Blocking Solution (Biolegend Human TruStain FcX, 422302) was added. Cells incubated in the receptor blocking solution for 10 minutes while making serial dilutions (1:3) of conjugate:IgE stock solution in EMEM. 40 ul of the conjugate:IgE mixture in EMEM was then added to cells (six dilutions, with final concentrations ranging from 300 nM to 1.23 nM) for 2 hours before washing with DPBS and detaching with 0.25% Trypsin/EDTA. Cells were pelleted in 96-well conical bottom plates, washed once with FACS Buffer with BSA (Rockland Immunochemicals), and resuspended in FACS Buffer with BSA. Uptake of fluorescently labelled IgE was measured by analyzing median cellular AF647 intensity by flow cytometry.
(§3) Cells were incubated with equimolar ratio of conjugate and AF647 IgE at indicated concentrations, with data normalized to unconjugated parent protein (Oma S35HWY57H-LC).

HepG2 cells = assay: Externalization of conjugates from a cell following internalization (cycling), high-throughput format (Example 11); settings: 50 nM conjugate 1 hour, stringent washes, Alexa Fluor 647-labelled a-human IgG 1 hour, FACS, normalized to unconjugated parent protein, average of two replicate wells
Experimental: as §1
The method was also adapted to a high-throughput format. In this assay, 25,000 HepG2 cells were plated in 96-well plates 48 hours before performing the experiment. The day of the experiment, cells were incubated with conjugate at indicated concentrations for 1 hour. Cells were then placed on ice to prevent trafficking/recycling during wash steps, and washed once with DPBS, once with sodium acetate buffer (20 mM, 150 mM NaCl, pH 5.2), once with Earle's Balanced Salt Solution (EBSS) adjusted to pH 2.5, and once again with DPBS, to remove conjugate from media and cell surface. Afterwards, 100 ul of prewarmed (to 37° C.) EMEM with 1 μg/ml of human a-IgG antibody conjugated to Alexa Fluor647 fluorophores was added to cells for 1 hour before washing with DPBS and detaching with 0.25% Trypsin/EDTA. Cells were pelleted in 96-well conical bottom plates, washed once with FACS Buffer with BSA (Rockland Immunochemicals), resuspended FACS Buffer with BSA and median AF647 intensity was analyzed by flow cytometry. The amount of conjugate capable of cycling to the cell surface (being externalized from the cell) and binding to the Alexa Fluor647 labelled α-IgG was measured by analyzing median cellular 647 fluorescence intensity by flow cytometry. […]. Reported values are the average of the values of two replicate wells.

human IgE = assay: Degradation of initial and subsequent dose of target in HepG2 cells (Example 12, Table 30); settings: normalized to unconjugated; for Normalized Fluorescence Post Wash Median Green: after wash, probe-conjugated IgE added for 4 hours, subsequent dose of target; for Normalized Fluorescence Precomplex Median Deep Red: precomplexed equimolar conjugate:IgE (cathepsin-cleavable quenched fluorescent probe) added for 2 hours, initial dose of target
Experimental: as §1
HepG2 cells (25,000) were plated in 96-well plates 48 hours before performing the experiment. On the day of the experiment, indicated conjugate was diluted in fresh EMEM as a 2× stock, and mixed with an equimolar stock of human IgE (Enzo Life Sciences, BPD-DIA-HE 1) conjugated to a cathepsin-cleavable quenched fluorescent probe. The precomplexed conjugate:IgE mixture was incubated at 37 degrees Celsius for 30 minutes. Media from HepG2 was removed, and conjugate:IgE mixture in EMEM was added to cells for 2 hours. Cells were then placed on ice to prevent trafficking/recycling during wash steps, and washed once with DPBS, once with sodium acetate buffer (20 mM, 150 mM NaCl, pH 5.2), once with Earle's Balanced Salt Solution (EBSS) adjusted to pH 2.5, and once again with DPBS, to remove conjugate from media and cell surface. Afterwards, 100 ul of prewarmed (to 37 degrees Celsius) EMEM with cathepsin-cleavable quenched fluorescent probe-conjugated IgE was added to cells for 4 hours before washing with DPBS and detaching with 0.25% Trypsin/EDTA. Cells were pelleted in 96-well conical bottom plates, washed once with FACS Buffer with BSA (Rockland Immunochemicals), resuspended FACS Buffer with BSA and median 488 and 647 intensity was analyzed by flow cytometry. Delivery of labelled IgE to the lysosome and subsequent cleavage of initial precomplexed IgE was measured by analyzing median cellular 647 intensity, while cleavage of the post wash addition of IgE, which should only be degraded by recycling conjugates which released the first round of precomplexed IgE, was analyzed by median cellular 488 intensity. HepG2 cells were treated with human IgE (Enzo Life Sciences, BPD-DIA-HE1) conjugated to a cathepsin-cleavable quenched deep red (647) fluorescent probe precomplexed to conjugate fortwo hours, then washed, and fresh media with IgE conjugated to a green (488) cathepsin-cleavable fluorescent probe was then added without conjugate. […] Fluorescence values were measured by FACS and normalized to unconjugated parent protein. Reported values are the average of the values of two replicate wells.

[2] = test system: Alexa Fluor647 labelled human IgE; assay: Uptake assay: internalization of Alexa Fluor 647 labelled IgE in wild type HepG2 cells (Example 6); settings: equimolar conjugate and AF647 IgE, 2 hours, median cellular AF647 intensity by flow cytometry, normalized to unconjugated parent protein
Experimental: as §1, §2, §3

[3] = test system: LysoLight-labelled human IgE; assay: Lysosomal degradation of LysoLight-labelled IgE in HepG2 cells, live cell imaging (Example 7); settings: equimolar conjugate:LysoLight IgE, area under the curve of deep red fluorescence over three days, normalized to unconjugated parent protein
Experimental: as §1
HepG2 cells (15,000) were plated in 96-well plates 72 hours before performing the experiment. On the day of the experiment, indicated the conjugate was diluted in fresh EMEM and mixed with an equimolar stock of LysoLight-labelled human IgE (Enzo Life Sciences, BPD-DIA-HE1), at 200 nM of each compound. The precomplexed conjugate:IgE mixture was incubated at room temperature for 30 minutes. During the precomplexing step, media from HepG2 was removed, and 40 ul of EMEM with 1/100 Fc Receptor Blocking Solution (Biolegend Human TruStain FcX, 422302) was added. Cells incubated in the receptor blocking solution for 10 minutes while making serial dilutions (1:3) of conjugate:IgE stock solution in EMEM. 40 ul of the conjugate:IgE mixture in EMEM was then added to cells (five dilutions, with final concentrations ranging from 100 nM to 1.23 nM). Cells were placed in an IncuCyte Live-Cell Analysis System (Sartorius) for long term live cell imaging analysis (10× magnification, 3 images per well). One hour after addition of compound, image acquisition to measure red fluorescence from the LysoLight probe was started, with further Images collected every hour for 72 hours. Fluorescence of the LysoLight probe only occurs when cleaved by lysosomal cathepsin proteases, confirming lysosomal delivery and degradation of target. After 72 hours, mean red fluorescence was measured for each time point, and the area under the curve of fluorescence overtime was used to measure total degradation over the 3-day time period.

recombinant IgE = assay: Degradation of super-stoichiometric levels of target in HepG2 cells (Example 13, Table 31); settings: 1 nM conjugate and 25 nM IgE for three days, (A-B)/C IgE depleted relative to conjugate, average of two replicate wells
Experimental: as §1
For evaluation of compounds in a high throughput format, 25,000 HepG2 cells were plated in a 96-well plate. The following day, 50 ul of 1 nM conjugate and 25 nM recombinant IgE in EMEM were added to the cells. 50 ul of the initial stock of conjugate:IgE was saved to quantify for an initial time point. Three days later, the media was collected from cells, and both initial and 72 hour time points were quantified for IgE concentration using the MSD assay.
HepG2 cells were incubated in media containing 1 nM conjugate and 25 nM IgE for three days. Concentrations of IgE at beginning and end of experiment were quantified by ELISA-based assay. Molar equivalents of IgE depleted relative to conjugate added are shown, calculated as (A-B)/C, where A is the initial concentration of IgE, B is the concentration of IgE at day three, and C is the concentration of conjugate. Reported values are the average of the values of two replicate wells.

Row | SMILES | Normalized Fluorescence 100 nM ASGPR KO [1] | Normalized Fluorescence (HepG2 cells) | Normalized Fluorescence Post Wash Median Green (human IgE) | Normalized Fluorescence Precomplex Median Deep Red (human IgE) | Normalized Fluorescence 3.7 nM WT [2] | Normalized Fluorescence 100 nM WT [2] | Normalized Fluorescence 3.7 nM [3] | Normalized Fluorescence 100 nM [3] | Average Degradation (Molar equivalents) (recombinant IgE)
1 | CC(CCCNC(=O)NCCOCCOCCOCC(F)(F)c1cncc(N[C@H]2CO[C@H](CO)[C@H](O)[C@@H]2O)n1)(CCCNC(=O)NCCOCCOCCOCC(F)(F)c1cncc(N[C@H]2CO[C@H](CO)[C@H](O)[C@@H]2O)n1)NC(=O)CCOCCOCCOCCNS(=O)(=O)c1ccc(N2C(=O)C=CC2=O)cc1 [Compound 2304] | 1.0 | 82.2 | 4.1 | 3.9 | 150.3 | 292.5 | 12.7 | 4.0 | 8.8 Molar equivalents
2 | CC(=O)N[C@@H]1[C@@H](O)[C@@H](O)[C@@H](CO)O[C@@H]1CCCOCCOCCNC(=O)NCCCC(CCCNC(=O)NCCOCCOCCC[C@H]1O[C@H](CO)[C@H](O)[C@H](O)[C@H]1NC(C)=O)(CCCNC(=O)NCCOCCOCCC[C@H]1O[C@H](CO)[C@H](O)[C@H](O)[C@H]1NC(C)=O)NC(=O)NCCOCCOCCOCCN(C)C(=O)CBr [Compound 2316] | 1.1 | 45.7 | 3.5 | 3.8 | 68.4 | 314.3 | 13.4 | 3.7 | 5.7 Molar equivalents
3 | CC(=O)N[C@H]1[C@H](OCCOCCOCCOCCNC(=O)CCOCC(COCCC(=O)NCCOCCOCCOCCO[C@@H]2O[C@H](CO)[C@H](O)[C@H](O)[C@H]2NC(C)=O)(COCCC(=O)NCCOCCOCCOCCO[C@@H]2O[C@H](CO)[C@H](O)[C@H](O)[C@H]2NC(C)=O)NC(=O)CCOCCOCCOCCOCCNC(=O)c2ccc(N3C(=O)C=CC3=O)cc2)O[C@H](CO)[C@H](O)[C@@H]1O [Compound 2402-C] | 1.3 | 10.5 | 1.6 | 2.1 | 19.6 | 84.3 | 2.2 | 2.1 | 0.7 Molar equivalents
4 | CC(=O)N[C@@H]1[C@@H](O)[C@@H](O)[C@@H](CO)O[C@@H]1CCCCCOCCOCCNC(=O)NCCCOCC(COCCCNC(=O)NCCOCCOCCCCC[C@@H]1O[C@@H](CO)[C@@H](O)[C@@H](O)[C@@H]1NC(C)=O)(COCCCNC(=O)NCCOCCOCCCCC[C@H]1O[C@H](CO)[C@H](O)[C@H](O)[C@H]1NC(C)=O)NC(=O)CCOCCOCCOCCNC(=O)c1ccc(N2C(=O)C=CC2=O)cc1 (stereo partly drawn) [Compound 2317] | 1.1 | 48.8 | 3.7 | 3.6 | 76.2 | 255.2 | 15.2 | 4.2 | 4.0 Molar equivalents
5 | O=C(CCOCCOCCOCCNS(=O)(=O)c1ccc(N2C(=O)C=CC2=O)cc1)NC(CCCNC(=O)NCCOCCOCCCc1ccnc(N[C@H]2CO[C@H](CO)[C@H](O)[C@@H]2O)n1)(CCCNC(=O)NCCOCCOCCCc1ccnc(N[C@H]2CO[C@H](CO)[C@H](O)[C@@H]2O)n1)CCCNC(=O)NCCOCCOCCCc1ccnc(N[C@H]2CO[C@H](CO)[C@H](O)[C@@H]2O)n1 [Compound 2311] | 1.1 | 11.6 | 1.7 | 2.0 | 22.6 | 92.9 | 2.2 | 2.2 | 0.5 Molar equivalents
